Experimental findings from patent US10874685B2, “Pancreatic cancer therapy and diagnosis” (Deutsches Krebsforschungszentrum Stiftung des Öffentlichen …, priority 2014, dated 2020) are described below.

What all share (type): cell-based, human
Assay [1] concerns pancreatic cancer cell lines (PANC-1, CFPAC-1, CAPAN-1, MIAPaCa-2, BXPC-3). Kind of assay: Sulforhodamine B (SRB) cytotoxicity assay on pancreatic cancer cell lines. Conditions: increasing concentration, 72 h. On the procedure:
PANC-1, CFPAC-1, CAPAN-1, MIAPaCa-2, BXPC-3 and fibroblast cells were seeded for 24 h and were exposed to increasing concentration of Pimozide and vehicle for 72 h (FIG. 3A). The same procedure was followed for treatment of cancer cell lines with L741 (FIG. 3B). Cell viability was characterized using a SRB assay. Values are the mean+/−SD of six independent experiments.
Five pancreatic ductal cancer cell lines with various degree of differentiation were obtained from American Type Culture Collection (Rockville, USA) and Normal Human Dermal Fibroblasts (NHDF) obtained from PromoCell. BXPC-3 (moderately differentiated) as well as poorly differentiated human pancreatic cancer cell lines, PANC-1 and MIAPaCa-2, have been established from primary tumor. AsPC-1, CAPAN-1 and CFPAC-1 which represent well differentiated cell lines was isolated from ascites and liver metastasis of pancreas adenocarcinoma. All cell lines contain mutation in P53 whereas K-ras mutation reported in all with the exception of BxPc3. BRCA2 mutation just reported in CAPAN-1 cells.
Sulforhodamine B sodium salt (sigma) was used to assess cell viability and IC50 determination of pancreatic cancer cells. […] Cell viability was specified by using plate reader (TECAN) with measuring of absorbance at 570 and 650 nm (background) in treated or untreated 96 well plate.

The subject of assay [2] is MIAPaCa-2 cells. Kind of assay: Transwell (Boyden chamber) migration assay, MIAPaCa-2. The conditions noted are these: MIAPaCa-2, Boyden chamber, increasing doses, 4 h. On the procedure:
MIAPaCa-2 cells were platted on transwells and exposed to increasing doses of Pimozide for 4 h (FIG. 7A). Migrated cells were measured and normalized to their controls. Values are the mean+/−SD of four replicate.
This assay for confirmation of cell migration was performed using 96-well Costar Transwell chambers with 8.0 μm pore polycarbonate membranes (Corning Inc., Corning, N.Y.). Cell culture inserts transwells were placed in wells of 96 well plate. The bottom chambers were filled with 120 μl of cell culture medium containing 10% FBS. Cells suspended in 70 μl serum free medium with DMSO as negative control or drugs were added to the upper part of each chamber followed by incubation at 37° C. with 5% CO2. After 4 h the medium was aspirated from the top of chambers and the bottom side of chambers washed with PBS. Those that have penetrated to the bottom side of the membrane were detached with 0.25% tryspin/EDTA during 3 min (37° C.) followed by inactivation of trypsine with soybean (Sigma Aldrich). […] Six replicates were performed for each treatment condition to predict the responder outcome variable and the luminescence signal which is corresponding to the number of live suspended cells was measured. Graph was plotted according to the readings obtained. […]

Assay [3] has as its system MIAPaCa-2, PANC-1 and AsPC-1 cells. Kind of assay: Glucose uptake measurement (labelled 2-DG) in PDAC cell lines. The conditions noted are these: all three cell lines; relative to DMSO control. The source says:
(§1) Measurement of 2-deoxy-D-glucose uptake shown on the y-axis relative to control by PDAC cell lines (MIAPaCa2, left; PANC-1, middle; AsPC1, right) treated with DMSO (C), pimozide (P) or haloperidol (H) (FIG. 10A). Abundance of free cholesterol, as measured by staining with filipin, after treatment with haloperidol (H) or pimozide (P) in PDAC cell lines (MIAPaCa2, left; PANC-1, middle; AsPC1, right) (FIG. 10B top). Representative micrographs of filipin-labelled cholesterol. PDAC (MIAPaCa2, top; PANC-1, middle; AsPC1, bottom) cells were seeded for 24 hours and treated with 10 μM haloperidol (H) or pimozide (P) or DMSO for 18 hours (FIG. 10B bottom). Red-fluorescence represents propidium iodide (PI)-stained nuclei and blue-fluorescence represents filipin-stained cholesterol. mRNA levels of genes relative to R-actin shown on the y-axis involved in cholesterol biosynthesis (from left to right: SREBP1, SREBP2, INSIG1, HMGCR, LDLR) measured by qRT-PCR 18 hours post-treatment with DMSO (C), haloperidol (H) or pimozide (P) in three PDAC cell lines (MIAPaCa2, top; PANC-1, middle; AsPC1, bottom) (FIG. 10C).
The induction effect of pimozide or haloperidol on labeled 2-DG uptake in cancer cells were determined from measurement of the fluorescence intensity of cell lysates. […]

Assay [4] shares this test system. Kind of assay: Free cholesterol measurement (Filipin staining) in PDAC cell lines. The conditions noted are these: 10 μM, 18 hours; vs DMSO.
From the text: as §1
Cancer cells were seeded for 24 hours and treated with pimozide, haloperidol or DMSO for 18 hours. The cells were fixed with paraformaldehyde, stained with Filipin™ and propidium iodide (PI), and photographed. Filipin™ is a fluorescent polyene antibiotic that binds to free cholesterol. […]

The test system of assay [5] is SREBP1, SREBP2, INSIG1, HMGCR, LDLR mRNA. In words: qRT-PCR of cholesterol biosynthesis genes in PDAC cell lines. The conditions noted are these: qRT-PCR 18 hours post-treatment; relative to actin.
From the text: as §1
For mice xenograft tissue samples and cultured cells, the miRNeasy kit (Qiagen, Valencia, Calif.) was used to extract total RNA. […] Quantification values were calculated according to a standard curve method created from a dilution series. […]
(Real-time PCR tracks product formation cycle by cycle.)

Each structure is given as a SMILES string. Entries after “also recorded” stand apart in the source; their conditions may differ.

With `O=c1[nH]c2ccccc2n1C1CCN(CCCC(c2ccc(F)cc2)c2ccc(F)cc2)CC1` [pimozide], the “cell viability of pancreatic cancer cell lines” value in assay [1] is given as “Potent toxicity effect; also recorded: dose dependent toxicity effect”. In addition, the migrated cells result in assay [2] was “significantly reduced migrated cells; also recorded: dose dependent inhibitory effect”. For the same compound, the “glucose uptake (intracellular labelled 2-deoxy-D-glucose)” value in assay [3] is “elevated uptake of glucose; also recorded: enhanced glucose and cholesterol uptake”. In assay [4], the “abundance of free cholesterol (Filipin staining)” value is “increased the abundance of free cholesterol; also recorded: enhanced glucose and cholesterol uptake”. For the same compound, the “expression of genes involved in lipogenesis / cholesterol biosynthesis” value in assay [5] is listed as “inducing expression of genes involved in lipogenesis”.
